Reference: patent US4307194A, “Inhibitors, obtained from bacilli, for glycoside hydrolases” (Bayer Aktiengesellschaft, priority 1976, dated 1981)

What was measured:
[1] = system: microbial α-glucosidases; settings: T. NIWA et al. Agr. Biol. Chem. 34, 966; cited from earlier work
[2] = target: T1, saccharase from swine small intestine mucosa (Sus scrofa, UniProt P56729); assay: Saccharase test (saccharase inhibitor units, SIU); assay type: biochemical; settings: solid product
T1 construct: sucrase subunit cut from the sucrase-isomaltase precursor
T1 sequence (P56729 with tags, fused parts or gaps): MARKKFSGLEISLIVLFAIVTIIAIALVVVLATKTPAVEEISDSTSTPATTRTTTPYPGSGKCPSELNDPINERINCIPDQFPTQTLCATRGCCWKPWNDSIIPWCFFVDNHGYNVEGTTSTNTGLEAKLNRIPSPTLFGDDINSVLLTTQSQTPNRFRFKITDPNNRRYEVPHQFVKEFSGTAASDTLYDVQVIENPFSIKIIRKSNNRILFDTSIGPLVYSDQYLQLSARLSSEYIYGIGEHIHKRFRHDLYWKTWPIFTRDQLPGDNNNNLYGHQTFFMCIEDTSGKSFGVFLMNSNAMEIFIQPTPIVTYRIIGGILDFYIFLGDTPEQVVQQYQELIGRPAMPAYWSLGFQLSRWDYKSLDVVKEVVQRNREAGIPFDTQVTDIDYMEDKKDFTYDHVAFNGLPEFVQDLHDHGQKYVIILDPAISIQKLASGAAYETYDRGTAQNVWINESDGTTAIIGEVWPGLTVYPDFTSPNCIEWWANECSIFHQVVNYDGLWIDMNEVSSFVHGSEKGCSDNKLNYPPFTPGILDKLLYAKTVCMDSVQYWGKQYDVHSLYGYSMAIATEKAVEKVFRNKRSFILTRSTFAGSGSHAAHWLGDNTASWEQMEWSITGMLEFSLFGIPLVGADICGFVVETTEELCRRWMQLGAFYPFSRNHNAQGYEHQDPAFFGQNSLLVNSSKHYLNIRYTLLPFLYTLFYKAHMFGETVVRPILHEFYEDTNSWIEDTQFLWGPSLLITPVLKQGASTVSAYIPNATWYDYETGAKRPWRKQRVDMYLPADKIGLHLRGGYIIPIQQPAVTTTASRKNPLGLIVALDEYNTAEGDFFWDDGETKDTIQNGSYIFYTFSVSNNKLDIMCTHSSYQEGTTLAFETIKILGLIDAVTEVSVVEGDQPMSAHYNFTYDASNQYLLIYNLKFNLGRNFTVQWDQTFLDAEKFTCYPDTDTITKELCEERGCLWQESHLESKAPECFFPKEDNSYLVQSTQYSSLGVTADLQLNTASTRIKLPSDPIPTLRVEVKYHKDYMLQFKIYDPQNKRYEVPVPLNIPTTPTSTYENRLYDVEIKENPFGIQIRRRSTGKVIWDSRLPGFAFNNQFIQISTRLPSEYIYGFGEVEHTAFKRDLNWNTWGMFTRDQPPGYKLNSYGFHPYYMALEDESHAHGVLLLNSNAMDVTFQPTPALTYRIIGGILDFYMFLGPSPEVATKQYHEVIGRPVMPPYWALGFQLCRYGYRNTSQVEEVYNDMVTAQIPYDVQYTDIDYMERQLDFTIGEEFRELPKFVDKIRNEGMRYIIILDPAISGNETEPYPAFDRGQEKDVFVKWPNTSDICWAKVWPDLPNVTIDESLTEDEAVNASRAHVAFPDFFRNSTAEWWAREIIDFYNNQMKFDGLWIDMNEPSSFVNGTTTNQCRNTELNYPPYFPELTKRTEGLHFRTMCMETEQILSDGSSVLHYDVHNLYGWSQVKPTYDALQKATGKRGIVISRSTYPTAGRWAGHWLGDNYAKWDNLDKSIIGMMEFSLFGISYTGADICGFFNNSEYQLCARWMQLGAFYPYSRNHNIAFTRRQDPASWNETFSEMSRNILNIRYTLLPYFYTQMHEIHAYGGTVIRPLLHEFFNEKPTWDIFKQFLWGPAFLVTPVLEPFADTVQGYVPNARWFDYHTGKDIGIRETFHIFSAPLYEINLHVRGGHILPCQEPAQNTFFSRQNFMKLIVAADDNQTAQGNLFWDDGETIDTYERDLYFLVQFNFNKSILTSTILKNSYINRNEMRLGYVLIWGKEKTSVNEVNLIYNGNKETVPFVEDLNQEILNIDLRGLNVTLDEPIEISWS
Protocol: A saccharase inhibitor unit (SIU) is defined as the amount of inhibitor which inhibits two saccharase units to the extent of 50%. A saccharase unit (SU) is the amount of enzyme which, under the test conditions indicated below, splits 1 μmol of sucrose into glucose and fructose in one minute. The μmols of glucose formed are determined quantitatively with the aid of the glucose oxidase reaction under conditions under which further splitting of sucrose by saccharase no longer takes place. In order to carry out the test, 1-20 μg of inhibitor, or 1-20 μl of the solution to be tested, are added to 0.05 ml of saccharase solution adjusted to a content of 0.12 SU and the mixture is made up to 0.1 ml with 0.1 M sodium maleate buffer of pH 6.0. Suitably, a solubilised saccharase from swine small intestine mucosa according to B. Borgstrom, A. Dahlquist, Acta Chem. Scand. […] The mixture is equilibrated at 35° C. for 10 minutes and 0.1 ml of a 0.05 M sucrose solution in 0.1 M sodium maleate buffer of pH 6.0, prewarmed to 35° C., is then added. The mixture is incubated at 35° C. for 20 minutes and the saccharase reaction is stopped by adding 1 ml of glucose oxidase reagent and the mixture is incubated for a further 30 minutes at 35° C. […] 1 ml of 50% strength H2 SO4 is then added and the mixture is measured at 545 nm against a corresponding blank value. […]

specific saccharase-inhibitory activity [2]	SMILES	inhibition of microbial α-glucosidases [1]
	OC[C@H]1NC(O)[C@H](O)[C@@H](O)[C@@H]1O (some centres unmarked) [nojirimycin]	inhibits
540,000 SIU/g	OC[C@H]1NC[C@H](O)[C@@H](O)[C@@H]1O [Example 34, 1-desoxynojirimycin]	
